# Results taken from patent US4826856A, “Calcium antagonistic dihydropyridine derivative” (Yason s.r.l., priority 1985, dated 1989).
# Read-outs that look alike come from different tables or passages of the source.
# Assays:
# Sprague-Dawley rats [1] = assay: Ventricular arrhythmias after re-circulation; format: in vivo, rat; settings: 5 mg/kg p.o.
# Protocol: (§1) Ventricular arrhythmias after coronary artery ligation in the acute phase or during the period of re-circulation
# (§2) Sprague-Dawley rats were subjected to ligation of the left coronary artery according to the method of Clark et al. in J. Pharmacol. Methods 3, 357-368, 1980. The drugs were administered by gastric tube 30 minutes before the ligation. By means of a continuous electrocardiographic recording, the ventricular arrhythmias such as ectopic beats (EB), ventricular tachycardia (VT), ventricular fibrillation (VF) for 30 minutes after ligation, were recorded.
# post-oligoemic rats = assay: Transient cerebral oligoemia in the rat, cerebral water, K+ and Ca++ content; format: in vivo; settings: for overall activity in cerebral oligoemia: p.o.
# Protocol: Transient cerebral oligoemia in the rat
# The method described by Borzeix in Circulation et Metabolisme du Cerveau 1, 63-79, John Libbey Eurotext Publ. […] The animals were treated by the oral route with the tested drugs twice a day, starting one hour after the ligation and for 3 days, in scalar doses.
# The last dose, at the 71th hour after the occlusion, preceeded by one hour the sacrifice of the animal, whose brain was subjected to the determination of the H2 O, K^+ and Ca^++ content.
# Rat thoracic aorta = assay: Inhibition of the contractile response of rat thoracic aorta strips in vitro; settings: for EC50: Rattus norvegicus
# Protocol: 1. Inhibition of the contractile response of arterial vessels in vitro
# Aortic strips (3 mm wide) were dissected from rat thoracic aorta and bathed in a Krebs-Henseleit solution bubbled with O2 :CO2 (95:5) at 38° C., under a tension of 2 g. After a 30-minutes stabilization period, a contraction was induced by adding either KCl (118 mM) or noradrenaline (10^-5 M.l^-1) in a calcium-free medium (Na EDTA 0.1 mM.l^-1) or noradrenaline (10^-5 M.l^-1) after readmission of calcium (CaCl2 1.25 mM.l^-1).
# Sprague-Dawley rats [2] = assay: Ventricular arrhythmias during coronary artery ligation period; format: in vivo, rat; design: EBs, mean value of indices + SEM / VT, mean value of indices + SEM / VF, mean value of indices + SEM: scale not given here
# Protocol: as §1, §2
# [3] = Pharmacokinetics and bioavailability in dogs; format: in vivo; settings: in vivo, 10 mg/kg, dog
# Protocol: YS 201 hydrochloride was intravenously and orally administered to dogs at 1 and 10 mg/kg respectively.
# SHR aorta = SHR aorta pretreatment study (PE or K+ contraction); design: species or system spontaneously hypertensive rat (SHR)
# Protocol: 1.3. SHR aorta--Pretreatment study
# SHR aorta were treated with either PE(1 μM) or high potassium (K^+, 80 mM) and the resulting contraction was allowed to sustain for 15 Minutes. After wash out and equilibration (1 hour), tissues were pretreated with a single concentration of either YS 201 or nifedipine. After a 30-minutes equilibration time, tissues were again challenged with either PE or K^+ and the resultant contraction compared to the initial contraction. Contractile effect was measured at 15 minutes after the addition of the agonist (PE or K^+).
# [4] = noradrenaline 10^-5 M.l^-1, calcium-free medium, read-out: EC50, NA - Ca++ contraction, rat aorta
# [5] = noradrenaline 10^-5 M.l^-1 after readmission of calcium (CaCl2 1.25 mM.l^-1), read-out: EC50, NA + Ca++ contraction, rat aorta
smiles,measurement,setting,value
"COc1ccc([C@@H]2Sc3ccccc3N(CCN(C)C)C(=O)[C@@H]2OC(C)=O)cc1 [diltiazem, reference compound]",Death rate %,Sprague-Dawley rats [1],27.3%
same,"EBs, mean value of indices + SEM",Sprague-Dawley rats [1],68.9 ± 32.12
same,VF %,Sprague-Dawley rats [1],45.5%
same,"VF, mean value of indices + SEM",Sprague-Dawley rats [1],8.8 ± 4.64
same,"VT, mean value of indices + SEM",Sprague-Dawley rats [1],4.2 ± 2.54
same,overall activity in cerebral oligoemia,post-oligoemic rats,good activity
COc1ccc(CCN(C)CCCC(C#N)(c2ccc(OC)c(OC)c2)C(C)C)cc1OC (stereo not drawn) [verapamil],overall activity in cerebral oligoemia,post-oligoemic rats,good activity
COCCOC(=O)C1=C(C)NC(C)=C(C(=O)OC(C)C)C1c1cccc([N+](=O)[O-])c1 (stereo not drawn) [nimodipine],EC50,Rat thoracic aorta; [4],100 µM
same,EC50,Rat thoracic aorta; [5],100 µM
same,Cerebral content of K+,post-oligoemic rats; 0.5 mg/kg p.o.,442.0 ± 22.40 mmol · kg^-1 dry weig
same,Cerebral content of H2O,post-oligoemic rats; 1.5 mg/kg p.o.,79.3 ± 0.40%
same,overall activity in cerebral oligoemia,post-oligoemic rats,fail
COC(=O)C1=C(C)NC(C)=C(C(=O)OCCN(C)Cc2ccccc2)C1c1cccc([N+](=O)[O-])c1 (stereo not drawn) [nicardipine],EC50,Rat thoracic aorta; [4],100 µM
same,Death rate %,Sprague-Dawley rats [2]; 0.5 mg/kg p.o.,0%
same,"EBs, mean value of indices + SEM",Sprague-Dawley rats [2]; 0.5 mg/kg p.o.,10.9
same,VF %,Sprague-Dawley rats [2]; 0.5 mg/kg p.o.,66.7%
same,"VF, mean value of indices + SEM",Sprague-Dawley rats [2]; 0.5 mg/kg p.o.,2.5
same,"VT, mean value of indices + SEM",Sprague-Dawley rats [2]; 0.5 mg/kg p.o.,2.5
same,Death rate %,Sprague-Dawley rats [2]; 1.0 mg/kg p.o.,33.3%
same,"EBs, mean value of indices + SEM",Sprague-Dawley rats [2]; 1.0 mg/kg p.o.,22.0
same,VF %,Sprague-Dawley rats [2]; 1.0 mg/kg p.o.,100%
same,"VF, mean value of indices + SEM",Sprague-Dawley rats [2]; 1.0 mg/kg p.o.,0.9
same,"VT, mean value of indices + SEM",Sprague-Dawley rats [2]; 1.0 mg/kg p.o.,0.5
same,Death rate %,Sprague-Dawley rats [2]; 2.0 mg/kg p.o.,25.0%
same,"EBs, mean value of indices + SEM",Sprague-Dawley rats [2]; 2.0 mg/kg p.o.,31.9
same,VF %,Sprague-Dawley rats [2]; 2.0 mg/kg p.o.,75%
same,"VF, mean value of indices + SEM",Sprague-Dawley rats [2]; 2.0 mg/kg p.o.,1.2
same,"VT, mean value of indices + SEM",Sprague-Dawley rats [2]; 2.0 mg/kg p.o.,0.7
same,Cerebral content of Ca++,post-oligoemic rats; 1 mg/kg p.o.,18.4 ± 7.04 mmol · kg^-1 dry weig
same,Cerebral content of K+,post-oligoemic rats; 1 mg/kg p.o.,460.0 ± 18.96 mmol · kg^-1 dry weig
same,Cerebral content of Ca++,post-oligoemic rats; 3 mg/kg p.o.,19.4 ± 5.0 mmol · kg^-1 dry weig
same,Cerebral content of H2O,post-oligoemic rats; 3 mg/kg p.o.,79.2 ± 0.42%
same,overall activity in cerebral oligoemia,post-oligoemic rats,fail
same,AUC,"[3]; po, same dose, read-out: AUC (converted)",1280 ng·h/mL
same,Cmax,"[3]; oral, read-out: maximum concentration (Cmax)",220 ng/mL
COC(=O)C1=C(C)NC(C)=C(C(=O)OC)C1c1ccccc1[N+](=O)[O-] [nifedipine],"inhibition of K+-induced contractions, SHR aortic strips",SHR aorta,extremely potent inhibitors
same,Death rate %,Sprague-Dawley rats [2]; 1.0 mg/kg p.o.,0%
same,"EBs, mean value of indices + SEM",Sprague-Dawley rats [2]; 1.0 mg/kg p.o.,70.0 ± 24.72
same,VF %,Sprague-Dawley rats [2]; 1.0 mg/kg p.o.,80%
same,"VF, mean value of indices + SEM",Sprague-Dawley rats [2]; 1.0 mg/kg p.o.,1.1 ± 0.55
same,"VT, mean value of indices + SEM",Sprague-Dawley rats [2]; 1.0 mg/kg p.o.,4.4 ± 2.22
same,Death rate %,Sprague-Dawley rats [2]; 1.5 mg/kg p.o.,20.0%
same,"EBs, mean value of indices + SEM",Sprague-Dawley rats [2]; 1.5 mg/kg p.o.,40.5 ± 20.19
same,VF %,Sprague-Dawley rats [2]; 1.5 mg/kg p.o.,60%
same,"VF, mean value of indices + SEM",Sprague-Dawley rats [2]; 1.5 mg/kg p.o.,1.7 ± 0.77
same,"VT, mean value of indices + SEM",Sprague-Dawley rats [2]; 1.5 mg/kg p.o.,2.1 ± 1.75
CCOC(=O)C1=C(C)NC(C)=C(C(=O)OC)C1c1cccc([N+](=O)[O-])c1 (stereo not drawn) [nitrendipine],EC50,Rat thoracic aorta; [5],100 µM
same,activity on contractions induced by noradrenaline in Ca++-free medium vs YS 201,Rat thoracic aorta; rat aorta,slightly more active than YS 201
